This is an account of results in US20240124450A1, “Novel SIK Inhibitors” (Pfizer Inc., priority 2022, published 2024).

The subject of assay [1] is IL10 release from human monocyte derived macrophages stimulated with LPS. Put plainly: SIK macrophage cytokine assay, increase of IL10 release. It is filed as cell-based. The following applies: 1 ng/mL LPS, 4 hours, HTRF. As to the method:
(§1) Cytokine Assays: SIK Macrophage Assay Cytokine activity is determined by measuring the effect of a test agent on the inhibitory release of the cytokine TNFα and the increasing release of the cytokine IL10 from human monocyte derived macrophages (human macrophages) stimulated with lipopolysaccharide (LPS). At the time of assay, human macrophages (CGPS group Pfizer Groton, CT) are removed from cryopreservation, thawed quickly at 37° C., diluted in thaw medium (OptiMEM—Gibco medium, 10% heat inactivated fetal bovine serum (HIFBS)), and then centrifuged at 200×g for 10 minutes. […] After ˜60 minutes in an incubator at 37° C. in a humidified environment in 5% carbon dioxide the cells are stimulated by the addition of 5 μL of LPS (10 ng/mL; Sigma) and the assay plate is returned to an incubator at 37° C. in a humidified environment in 5% carbon dioxide for 4 hours. […] The final concentration of DMSO in the assay is approximately 0.1%. After 4 hours, the assay plate is removed from the incubator and centrifuged at 1500 rpm for 10 minutes. A portion of the resulting cell supernatant is then used to determine the amount of IL-10 and TNFα in each well. Cytokine measurements are made using human IL-10 and TNFα HTRF assay kits (Perkin Elmer) following the manufacturer's assay protocol.

For assay [2], the target named is SIK2 (Homo sapiens (Human), UniProt Q9H0K1). The assay is described as follows: Pan SIK MS IC50 enzyme assay (SIK2). It is filed as biochemical. Conditions: 1 mM ATP, substrate peptide AQT0252, LCMS/MS detection. As to the method: (§2) Enzyme Assay: Pan SIK MS IC50 Assay
Sequence of SIK2 (Q9H0K1 whole entry, species assumed): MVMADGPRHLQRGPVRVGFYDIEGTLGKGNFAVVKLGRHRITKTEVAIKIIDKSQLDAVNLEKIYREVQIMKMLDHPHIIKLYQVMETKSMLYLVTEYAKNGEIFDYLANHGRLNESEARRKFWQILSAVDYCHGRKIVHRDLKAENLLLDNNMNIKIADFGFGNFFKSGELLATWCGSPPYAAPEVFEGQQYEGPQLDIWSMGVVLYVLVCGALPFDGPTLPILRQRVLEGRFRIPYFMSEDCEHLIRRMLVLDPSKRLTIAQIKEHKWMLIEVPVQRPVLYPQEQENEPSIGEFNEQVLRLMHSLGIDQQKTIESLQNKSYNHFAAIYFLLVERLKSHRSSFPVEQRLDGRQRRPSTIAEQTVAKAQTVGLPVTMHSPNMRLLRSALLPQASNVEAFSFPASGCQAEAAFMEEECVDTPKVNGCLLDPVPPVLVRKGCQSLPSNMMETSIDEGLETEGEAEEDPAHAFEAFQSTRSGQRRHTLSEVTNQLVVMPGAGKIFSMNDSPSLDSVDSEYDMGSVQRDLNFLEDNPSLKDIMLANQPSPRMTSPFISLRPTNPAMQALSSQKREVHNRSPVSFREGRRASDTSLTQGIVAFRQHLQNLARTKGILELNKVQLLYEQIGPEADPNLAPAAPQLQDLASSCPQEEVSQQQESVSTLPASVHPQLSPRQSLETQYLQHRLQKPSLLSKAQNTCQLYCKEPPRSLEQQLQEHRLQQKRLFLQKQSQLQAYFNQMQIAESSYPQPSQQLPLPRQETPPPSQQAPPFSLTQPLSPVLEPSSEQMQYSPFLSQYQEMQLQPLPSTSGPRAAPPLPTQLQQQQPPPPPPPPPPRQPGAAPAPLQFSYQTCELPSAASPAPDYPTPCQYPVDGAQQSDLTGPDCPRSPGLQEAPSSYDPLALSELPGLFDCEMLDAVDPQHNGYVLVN
(§3) Salt Induced Kinase (SIK) activity is determined by measuring the effect of a test agent on the activity of the appropriate SIK enzyme to phosphorylate its corresponding substrate. […] The phosphorylated substrate product resulting from the kinase reaction is detected by LCMS/MS, and the area under the peak curve correlates with kinase activity. […] The plates are spun at 1000 rpm for 30 seconds to ensure compounds are at the bottom of the well before removing foil covers. 0.15 μL HPE (assay std) and ZPE (DMSO) are added to the ARP using an HP D300 dispenser. Plates are spun again at 1000 rpm for 30 seconds. […] Plates are spun at 1000 rpm for 30 seconds. Plates are then sealed and incubated at RT for 10 minutes. Following incubation, 5 μL of 5× peptide reagent is added with a Multidrop Combi and designated small volume cassette to initiate the kinase reaction. Plates are spun at 1000 rpm for 30 seconds. Plates are then sealed and incubated at RT for 90 minutes. The assay is stopped by the addition of 5 μl of 120 mM EDTA added with a Multidrop Combi and designated small volume cassette (20 mM final concentration). Plates are spun at 1000 rpm for 30 seconds. 10 μl of the final reaction mix from each of the three individual enzyme plates are transferred by a Platemate Plus to the same corresponding 96 well deepwell plate containing 70 μl Water/Methanol (85/15%) for multiplex MS detection ([…]). Using Activity Base (ABase), an idbs data analysis software tool, the reported area ratio unit data is associated to compound, batch and dose information, the data is evaluated for quality, and the percent inhibition of each well is calculated. The data from each Max effect/HPE and Min effect/ZPE control wells are assessed, and outliers are excluded from all further calculations. The mean and standard deviation of the HPE and ZPE are then calculated for each plate, along with the Z Prime. The compound data is converted into % effect, using the average ZPE and HPE controls as 0% and 100% activity, respectively.

The target of assay [3] is SIK1 (Homo sapiens (Human), UniProt P57059). The assay is described as follows: Pan SIK MS IC50 enzyme assay (SIK1). The format is biochemical. The following applies: 1 mM ATP, substrate peptide AQT0868, LCMS/MS detection. As to the method:
as §2, §3

For assay [4], the system named is TNFα release from human monocyte derived macrophages stimulated with LPS. The assay is described as follows: SIK macrophage cytokine assay, inhibition of TNFα release. The format is cell-based. The following applies: 1 ng/mL LPS, 4 hours, HTRF, read-out: TNFa IC50. The protocol: as §1
For assay [5], the target named is SIK3 (Homo sapiens (Human), UniProt Q9Y2K2). The assay is described as follows: Pan SIK MS IC50 enzyme assay (SIK3). The format is biochemical. Conditions: 1 mM ATP, substrate peptide AQT0508, LCMS/MS detection. As to the method:
as §2, §3

In general, EC50 refers to the concentration at which the effect is half-maximal. The IC50 is the concentration that gives 50% inhibition.

Read-outs that look alike come from different tables or passages of the source.

Sequence of SIK3 (Q9Y2K2 whole entry, species assumed): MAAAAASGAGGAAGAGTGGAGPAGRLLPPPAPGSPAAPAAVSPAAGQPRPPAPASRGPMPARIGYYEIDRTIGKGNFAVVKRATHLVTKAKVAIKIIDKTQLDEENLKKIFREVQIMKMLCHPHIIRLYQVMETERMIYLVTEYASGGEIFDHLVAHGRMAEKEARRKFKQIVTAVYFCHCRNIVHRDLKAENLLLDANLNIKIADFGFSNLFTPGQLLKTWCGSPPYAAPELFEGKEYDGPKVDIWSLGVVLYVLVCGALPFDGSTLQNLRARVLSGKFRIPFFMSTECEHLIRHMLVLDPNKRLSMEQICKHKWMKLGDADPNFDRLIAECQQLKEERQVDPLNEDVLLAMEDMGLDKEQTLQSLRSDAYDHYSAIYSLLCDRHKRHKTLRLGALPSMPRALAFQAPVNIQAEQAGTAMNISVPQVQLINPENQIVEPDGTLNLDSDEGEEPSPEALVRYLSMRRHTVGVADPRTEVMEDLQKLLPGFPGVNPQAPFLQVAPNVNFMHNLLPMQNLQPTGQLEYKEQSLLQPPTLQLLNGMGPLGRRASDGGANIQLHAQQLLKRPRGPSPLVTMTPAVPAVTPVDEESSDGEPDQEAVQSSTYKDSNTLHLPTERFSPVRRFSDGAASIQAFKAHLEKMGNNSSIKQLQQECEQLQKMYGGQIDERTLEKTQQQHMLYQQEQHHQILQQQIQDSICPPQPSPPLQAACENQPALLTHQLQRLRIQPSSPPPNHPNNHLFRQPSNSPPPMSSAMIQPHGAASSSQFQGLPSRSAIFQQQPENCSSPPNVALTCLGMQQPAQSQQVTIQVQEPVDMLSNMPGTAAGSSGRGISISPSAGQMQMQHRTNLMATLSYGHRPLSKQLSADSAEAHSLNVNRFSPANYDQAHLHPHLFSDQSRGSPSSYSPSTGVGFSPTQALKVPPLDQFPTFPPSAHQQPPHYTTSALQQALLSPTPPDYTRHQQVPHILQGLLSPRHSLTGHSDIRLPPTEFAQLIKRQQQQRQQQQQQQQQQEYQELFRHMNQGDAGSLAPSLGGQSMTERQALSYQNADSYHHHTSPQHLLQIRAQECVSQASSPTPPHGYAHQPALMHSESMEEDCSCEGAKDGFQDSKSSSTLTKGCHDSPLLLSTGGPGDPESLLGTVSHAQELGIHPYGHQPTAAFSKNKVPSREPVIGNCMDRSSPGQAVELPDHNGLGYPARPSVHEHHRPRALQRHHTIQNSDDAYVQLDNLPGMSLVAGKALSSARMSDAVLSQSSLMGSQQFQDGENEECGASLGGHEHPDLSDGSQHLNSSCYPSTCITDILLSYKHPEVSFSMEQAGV
Sequence of SIK1 (P57059 whole entry, species assumed): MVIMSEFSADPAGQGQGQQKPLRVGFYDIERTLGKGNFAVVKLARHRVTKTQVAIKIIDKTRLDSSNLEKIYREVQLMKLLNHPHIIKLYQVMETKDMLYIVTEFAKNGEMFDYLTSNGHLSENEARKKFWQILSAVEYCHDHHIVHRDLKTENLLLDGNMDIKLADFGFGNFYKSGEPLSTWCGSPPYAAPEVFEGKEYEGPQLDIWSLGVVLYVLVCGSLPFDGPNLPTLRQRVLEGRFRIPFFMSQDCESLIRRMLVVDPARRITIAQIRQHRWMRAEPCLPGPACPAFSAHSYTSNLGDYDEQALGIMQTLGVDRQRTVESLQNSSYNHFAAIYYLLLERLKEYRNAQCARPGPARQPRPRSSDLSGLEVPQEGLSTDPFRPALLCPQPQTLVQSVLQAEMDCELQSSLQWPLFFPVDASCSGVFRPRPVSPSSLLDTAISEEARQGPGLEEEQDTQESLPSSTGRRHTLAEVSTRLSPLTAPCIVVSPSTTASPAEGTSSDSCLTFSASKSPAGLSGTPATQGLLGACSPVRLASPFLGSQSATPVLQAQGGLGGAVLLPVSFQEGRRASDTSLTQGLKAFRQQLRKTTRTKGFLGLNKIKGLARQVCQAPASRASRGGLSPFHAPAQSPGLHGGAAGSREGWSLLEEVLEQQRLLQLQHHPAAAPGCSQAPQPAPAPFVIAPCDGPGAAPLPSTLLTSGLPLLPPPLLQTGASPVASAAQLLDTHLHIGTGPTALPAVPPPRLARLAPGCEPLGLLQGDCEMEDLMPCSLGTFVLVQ

As for `CSc1cc(-c2cnc3ccc(C)c(C#N)n23)cc(OCC2(N)CCCC2)c1C#N` [Example 40, 3-(3-((1-Aminocyclopentyl)methoxy)-4-cyano-5-(methylthio)phenyl)-6-methylimidazo[1,2-a]pyridine-5-carbonitrile], in assay [1] (Macrophage), the EC50 was 17 nM. In addition, the IC50 is 0.6 nM in assay [2], 0.4 nM in assay [3], 6.1 nM in assay [4] (Macrophage) and 1.6 nM in assay [5].

As for `CCC1CCCC1(N)COc1cc(-c2cnc3cccc(OC)n23)cc(SC)c1C#N` (stereo not drawn) [Example 8, 2-((1-Amino-2-ethylcyclopentyl)methoxy)-4-(5-methoxyimidazo[1,2-a]pyridin-3-yl)-6-(methylthio)benzonitrile], the EC50 in assay [1] (Macrophage) amounted to 23 nM. Moreover, the IC50 in assay [2] turned out to be 1 nM; in assay [3], 1.1 nM; in assay [4] (Macrophage), 11.1 nM; in assay [5], 3.3 nM.

As for `CC[C@H]1CCC[C@@](N)(COc2cc(-c3cnc4cccc(C#N)n34)cc(SC)c2C#N)C1` (racemic) [Example 18, 3-(3-(((1S,3S)-1-Amino-3-ethylcyclohexyl)methoxy)-4-cyano-5-(methylthio)phenyl)imidazo[1,2-a]pyridine-5-carbonitrile and 3-(3-(((1R,3R)-1-amino-3-ethylcyclohexyl)methoxy)-4-cyano-5-(methylthio)phenyl)imidazo[1,2-a]pyridine-5-carbonitrile], in assay [1] (Macrophage), the EC50 is 5 nM. The IC50 in assay [2] was found to be 0.6 nM; in assay [3] it was 0.1 nM; in assay [4] (Macrophage), 1.1 nM; in assay [5], 1 nM.

In assay [1] (Macrophage), `CSc1cc(-c2cnc3ccccn23)cc(OC[C@@]2(N)CCC[C@@H](C(F)(F)F)C2)c1C#N` (racemic) [Example 33A, 2-(((1S,3S)-1-Amino-3-(trifluoromethyl)cyclohexyl)methoxy)-4-(imidazo[1,2-a]pyridin-3-yl)-6-(methylthio)benzonitrile and 2-(((1R,3R)-1-amino-3-(trifluoromethyl)cyclohexyl)methoxy)-4-(imidazo[1,2-a]pyridin-3-yl)-6-(methylthio)benzonitrile] yielded a concentration giving a half-maximal response (EC50) of 34 nM. Also, the half-inhibitory concentration (IC50) was determined as 1 nM in assay [2], 0.6 nM in assay [3], 13.9 nM in assay [4] (Macrophage) and 2.2 nM in assay [5].

In assay [1] (Macrophage), `CC[C@@H]1CCC[C@@]1(N)COc1cc(-c2cnc3cccc(OC)n23)cc(OC)c1C#N` [Example 2A, 2-(((1S,2R)-1-Amino-2-ethylcyclopentyl)methoxy)-6-methoxy-4-(5-methoxyimidazo[1,2-a]pyridin-3-yl)benzonitrile] showed an EC50 of 21 nM. Moreover, the IC50 worked out at 0.6 nM in assay [2], 0.5 nM in assay [3], 5.2 nM in assay [4] (Macrophage) and 2 nM in assay [5].

`COCC1CCC[C@@](N)(COc2cc(-c3cnc4ccccn34)cc(SC)c2C#N)C1` (mixture of isomers) [Example 31, 2-(((1S)-1-Amino-3-(methoxymethyl)cyclohexyl)methoxy)-4-(imidazo[1,2-a]pyridin-3-yl)-6-(methylthio)benzonitrile and 2-(((1R)-1-amino-3-(methoxymethyl)-cyclohexyl)methoxy)-4-(imidazo[1,2-a]pyridin-3-yl)-6-(methylthio)benzonitrile]: the EC50 in assay [1] was determined as 36 nM. The IC50 in assay [2] stood at 1.6 nM; in assay [3], 0.7 nM; in assay [4], 13.8 nM; in assay [5], 4.8 nM.

`COc1cc(C#N)n2c(-c3cc(OC)c(C#N)c(OCC4(N)CCCCC4)c3)cnc2c1` [Example 52, 3-(3-((1-Aminocyclohexyl)methoxy)-4-cyano-5-methoxyphenyl)-7-methoxyimidazo[1,2-a]pyridine-5-carbonitrile] showed an EC50 in assay [1] (Macrophage) of 178 nM. Also, the 50% inhibitory concentration (IC50) was determined as 1.1 nM in assay [2], 5.1 nM in assay [3], 12 nM in assay [4] (Macrophage) and 2.1 nM in assay [5].

`CSc1cc(-c2cnc3cc(Cl)cc(C#N)n23)cc(OCC2(N)CCCC2)c1C#N` [Example 42, 3-(3-((1-Aminocyclopentyl)methoxy)-4-cyano-5-(methylthio)phenyl)-7-chloroimidazo[1,2-a]pyridine-5-carbonitrile]: in assay [1] (Macrophage), the EC50 worked out at 85 nM. The IC50 is 0.9 nM in assay [2], 3 nM in assay [3], 10.7 nM in assay [4] (Macrophage) and 2.2 nM in assay [5].

`COc1cccc2ncc(-c3cc(OCC4(N)CCCC4)c(C#N)c(SC)c3)n12` [Example 1, 2-((1-Aminocyclopentyl)methoxy)-4-(5-methoxyimidazo[1,2-a]pyridin-3-yl)-6-(methylthio)benzonitrile] had a half-maximal effective concentration (EC50) in assay [1] (Macrophage) of 109 nM. Further, the IC50 in assay [2] was found to be 2.2 nM; in assay [3], 2.5 nM; in assay [4] (Macrophage) it was 26.4 nM; in assay [5], 7.5 nM.
